Results on four compounds are retold here after article PMC8955938, “c-Myc Protein Level Affected by Unsymmetrical Bisacridines Influences Apoptosis and Senescence Induced in HCT116 Colorectal and H460 Lung Cancer Cells” (International Journal of Molecular Sciences, 2022).

For experiment [1], the system named is H460 cells. The experiment is described as follows: Accelerated senescence (SA-β-gal), H460. The experiment is classed as cell-based, human. The note with it: H460, IC90 doses, 72 and 120 h. As for the experimental part: (§1) The accelerated senescence examination was based on the analysis of pH 6.0-dependent β-galactosidase (SA-β-gal) expression together with senescence-related morphology, such as enlarged and flattened cells. HCT116 and H460 cells were seeded in 60 mm plates containing microscope coverslips and treated with UAs for up to 120 h. After the treatment, coverslips with attached cells were moved to 35 mm dishes, washed twice with PBS and fixed with 2% glutaraldehyde and 0.2% formaldehyde for 5 min. The cells were then washed twice with PBS (pH 6.0) and incubated at pH 6.0 with X-gal (5-bromo-4-chloro-3-indolyl-β-D-[…], substrate for SA-β-gal) staining solution (1 mg/mL X-gal, 40 mmol/L citric acid/sodium phosphate, pH 6.0, 5 mmol/L potassium ferrocyanide, 5 mmol/L potassium ferricyanide, 150 mmol/L NaCl, 2 mmol/L MgCl2). Following overnight incubation at 37 °C, cells were washed twice with PBS and observed under a light microscopy (OLYMPUS BX60; magnification ×200).

A further experiment concerns HCT116 cells. The experiment is described as follows: Accelerated senescence (SA-β-gal), HCT116. The experiment is classed as cell-based, human. The note with it: HCT116, IC90 doses, up to 120 h. As to the method: as §1, with “After the treatment, coverslips with attached cells were moved to 35 mm dishes, washed twice with PBS and fixed with 2% glutaraldehyde and 0.2% formaldehyde for 5 min.” left out

Another experiment concerns H460 spheroids. On the set-up: method as in PMID 34684841. The note with it: H460 3D spheroids; cited from earlier work.
The test system of experiment [2] is H460 cells. The experiment is described as follows: Apoptosis in H460, summary of all conducted experiments. The experiment is classed as cell-based, human. The note with it: H460, IC90 doses, 120 h, summary in discussion. As to the method:
Nuclear morphology was examined under a fluorescence microscope (OLYMPUS BX60, […]) after staining with Hoechst 33342. Briefly, after drug treatment, HCT116, H460, CCD 841 CoN and MRC-5 cells were spun onto microscopic slides, fixed with methanol:acetic acid (3:1) for 15 min and stained with Hoechst 33342 (1 mg/mL) for 15 min. Cells were regarded as apoptotic based on the presence of condensed, fragmented chromatin. Enlarged cells containing multiple nuclei were considered as typical of mitotic catastrophe.
Annexin V–FITC binding was performed with an Annexin-V Fluos Staining kit (BD Biosciences, San Jose, CA, USA) according to manufacturer’s protocol. […] Cells were incubated for 15 min at room temperature in the dark, then diluted with 400 µL of binding buffer and analyzed by flow cytometry with FACS Accuri C6 (BD, San Jose, CA, USA). Cells with low FITC and PI fluorescence were considered viable. Cells that presented high FITC fluorescence but low PI fluorescence were regarded as early apoptotic. Late apoptotic cells presented high FITC and PI fluorescence. Necrotic cells had low FITC fluorescence and high PI fluorescence.
Caspase-3 activity was determined using Alexa Fluor 647-conjugated anti-active caspase-3 antibody (BD Biosciences, San Diego, CA, USA) according to the manufacturer’s instructions. […]

For `CN(CCCNc1c2ccccc2nc2cccc([N+](=O)[O-])c12)CCCNc1ccc2ncn3c4ccccc4c(=O)c1c23` [Compound C-2028], the “accelerated senescence (SA-β-gal blue staining)” value (“accelerated senescence” for short) with H460 cells [1] was “induced senescence to the highest extent”.
Regarding `O=c1c2ccccc2n2cnc3ccc(NCCCN4CCN(CCCNc5c6ccccc6nc6cccc([N+](=O)[O-])c56)CC4)c1c32` [Compound C-2041], the “accelerated senescence” value with HCT116 cells is recorded as “a few cells with characteristic blue color were observed”. The “inhibition of spheroids growth” value in the experiment on H460 spheroids was “to the least extent”.
Regarding `Cc1ccc([N+](=O)[O-])c2c(NCCCN(C)CCCNc3ccc4ncn5c6ccc(O)cc6c(=O)c3c45)c3ccccc3nc12` [Compound C-2045], the “treated cells that underwent apoptosis” value with H460 cells [2] is “about 60%”.
For `Cc1ccc([N+](=O)[O-])c2c(NCCCN(C)CCCNc3ccc4ncn5c6ccccc6c(=O)c3c45)c3ccccc3nc12` [Compound C-2053], the “accelerated senescence” value in the experiment with H460 cells [1] is reported as “least profound changes”. For the same compound, the “treated cells that underwent apoptosis” value in the experiment on H460 cells [2] is reported as “about 60%”. Besides, the “inhibition of spheroids growth” value in the experiment on H460 spheroids is reported as “to the greatest extent”.
